How the values were obtained:
[1] = system: nuclear factor-κB (NF-κB) activation; settings: cited from earlier work
[2] = system: relapsed and refractory myeloma; assay: SUMMIT phase 2 trial (025); assay type: in vivo, human; settings: Study 025, bortezomib alone
Source text: (§1) Dexamethasone is a synthetic adrenocorticosteroid, CAS Registry No. 312-93-6, administered as tablets (DECADRON® Merck & Co., Inc.). 024: The CREST phase 2 trial (024) of either relapsed or refractory disease (subjects with first relapse, Jagannath et al. (2004) Br. J. Haematol. 127:165-172). […] 025: The SUMMIT phase 2 trial of patients with relapsed and refractory myeloma (subjects with second or greater relapse and refractory to their last prior therapy, Richardson P G, et al. (2003) N. Engl. J. Med. 348:2609-2617). […] Patients who received dexamethasone were treated for a maximum of 280 days by the following method: received up to four 5-week treatment cycles, followed by up to five 4-week treatment cycles. Within each 5-week treatment cycle, the patient received dexamethasone 40 mg/day PO, once daily on Days 1 to 4, 9 to 12, and 17 to 20 of a 35-day cycle. Within each 4-week treatment cycle, the patient received dexamethasone 40 mg/day PO once daily on Days 1 to 4 of a 28 day cycle. 040: Companion trial to 039 for patients who had more than 3 prior therapies. […] An additional 240 patients not from the −039 study, but who received at least 4 prior therapies also enrolled in this study.

myeloma cells = settings: independent of their p53 status; cited from earlier work
[3] = system: relapsed multiple myeloma; assay: Response in pharmacogenomic portion of the studies; assay type: in vivo, human; settings: for CR, number of patients / IE, number of patients / MR, number of patients / NC, number of patients / PD, number of patients / PR, number of patients: pharmacogenomic patients, study 039; for CR+PR rate / overall response rate: pharmacogenomic set of patients
Source text: Patient samples and response criteria from patients participating in these studies, as well as the following additional studies described below were sought for use in pharmacogenomic analyses to identify markers associated with patient survival. The samples were derived from the trials as described in Table 3 and in the following paragraphs.
For those patients who participated in the pharmacogenomic portion of the study, Table 6 summarizes the response rates and Table 7 summarizes the patients evaluated for survival. […]

xenograft tumor models = settings: variety of xenograft tumor models; cited from earlier work
[4] = system: relapsed multiple myeloma; assay: CREST phase 2 trial (024); assay type: in vivo, human
Source text: as §1

[5] = system: relapsed or refractory multiple myeloma; assay: APEX phase 3 trial (039); assay type: in vivo, human; settings: for Median duration of response / Median time to response / One-year survival / complete response / complete response plus near-complete response / complete response, number of patients: 039; for response rate (complete plus partial response (CR+PR)): 039, EBMT criteria; for CR + PR + MR, (%) / Complete Response, (%) / Minor Response, (%) / Near CR: IF+, (%) / No Change, (%) / Not Evaluable, (%) / Overall Response Rate (CR + PR), (%) / Partial Response, (%) / Progressive Disease, (%) / SWOG Remission, (%): best confirmed response, N = 627
Source text: as §1
The following section presents more detailed information on the −039 trial. During the study, disease response was assessed according to the European Group for Blood and Marrow Transplant (EBMT) criteria as presented in Table 4.
Response and date of disease progression was determined by computer algorithm that integrated data from a central laboratory and case report forms from each clinical site, according to the Blade criteria (Table 4). […] See Richardson et al., supra.
Disease progression was determined by Blade criteria as described in Table 4 and above. […] The date of progression was determined by computer algorithm. P-value from log-rank test adjusted by actual randomization factors. See Richardson et al., supra.

[6] = system: cells that over express B-cell lymphoma 2 (Bcl-2); settings: cells that over express Bcl-2; cited from earlier work
[7] = difference in rates, bortezomib vs dexamethasone
[8] = difference in response rates, bortezomib vs dexamethasone

Question: With `CC(C)C[C@H](NC(=O)[C@H](Cc1ccccc1)NC(=O)c1cnccn1)B(O)O` [bortezomib, N (pyrazine)carbonyl-L-phenylalanine-L-leucine boronic acid] as the compound, how does the NF-κB activation [1] read?
Answer: inhibits

Question: And the “CR+PR rate” value [2]?
Answer: 27%

Question: And the “overall response rate (CR+PR+minimal response (MR))” value [2]?
Answer: 35%

Question: What about the “CR+PR, number of patients” value ([2]; of 193 patients) of the same compound?
Answer: 53 patients

Question: What about the “overall response (CR+PR+MR), number of patients” value ([2]; of 193 patients) of the same compound?
Answer: 67 patients

Question: And the “cytotoxicity to myeloma cells in culture” value (myeloma cells)?
Answer: directly cytotoxic

Question: And the “CR, number of patients” value [3]?
Answer: 5

Question: What about the “IE, number of patients” value [3] of the same compound?
Answer: 9

Question: And the “MR, number of patients” value [3]?
Answer: 5

Question: What about the “NC, number of patients” value [3] of the same compound?
Answer: 19

Question: And the “PD, number of patients” value [3]?
Answer: 13

Question: And the “PR, number of patients” value [3]?
Answer: 25

Question: And the “CR+PR rate” value [3]?
Answer: 32%

Question: What about the overall response rate [3] of the same compound?
Answer: 42.3%

Question: And the “cytotoxic activity in xenograft tumor models” value (xenograft tumor models)?
Answer: cytotoxic activity

Question: And the “complete response (CR)+partial response (PR) rate” value ([4]; Study 024, bortezomib 1.0 mg/m^2)?
Answer: 30%

Question: What about the “complete response (CR)+partial response (PR) rate” value ([4]; Study 024, bortezomib 1.3 mg/m^2) of the same compound?
Answer: 38%

Question: And the “Median duration of response” value [5]?
Answer: 8 months

Question: What about the “Median time to response” value [5] of the same compound?
Answer: 43 days

Question: And the One-year survival [5]?
Answer: 80%

Question: What about the complete response [5] of the same compound?
Answer: 6%

Question: What about the “complete response plus near-complete response” value [5] of the same compound?
Answer: 13%

Question: What about the “complete response, number of patients” value [5] of the same compound?
Answer: 20 patients

Question: And the “response rate (complete plus partial response (CR+PR))” value [5]?
Answer: 38%

Question: And the “CR + PR + MR, (%)” value [5]?
Answer: (46) %

Question: What about the “Complete Response, (%)” value [5] of the same compound?
Answer: (6) %

Question: And the “Minor Response, (%)” value [5]?
Answer: (8) %

Question: What about the “Near CR: IF+, (%)” value [5] of the same compound?
Answer: (7) %

Question: What about the “No Change, (%)” value [5] of the same compound?
Answer: (43) %

Question: What about the “Not Evaluable, (%)” value [5] of the same compound?
Answer: (3) %

Question: And the “Overall Response Rate (CR + PR), (%)” value [5]?
Answer: (38) %

Question: And the “Partial Response, (%)” value [5]?
Answer: (32) %

Question: And the “Progressive Disease, (%)” value [5]?
Answer: (7) %

Question: And the “SWOG Remission, (%)” value [5]?
Answer: (15) %

Question: What about the “No Change, Difference” value [5, 7] of the same compound?
Answer: −0.04

Question: And the “Not Evaluable, Difference” value [5, 7]?
Answer: −0.01

Question: What about the “Progressive Disease, Difference” value [5, 7] of the same compound?
Answer: −0.06

Question: What about the “CR + PR + MR, Difference” value [5, 8] of the same compound?
Answer: 0.12

Question: And the “Complete Response, Difference” value [5, 8]?
Answer: 0.06

Question: And the “Minor Response, Difference” value [5, 8]?
Answer: −0.09

Question: And the “Near CR: IF+, Difference” value [5, 8]?
Answer: 0.06

Question: And the “Overall Response Rate (CR + PR), Difference” value [5, 8]?
Answer: 0.20

Question: And the “Partial Response, Difference” value [5, 8]?
Answer: 0.15

Question: What about the “SWOG Remission, Difference” value [5, 8] of the same compound?
Answer: 0.09

Question: And the “decrease in risk of death” value ([5]; first year after enrollment, bortezomib group vs dexamethasone)?
Answer: 41%

Question: And the apoptosis [6]?
Answer: induces apoptosis

Question: For `C[C@@H]1C[C@H]2[C@@H]3CCC4=CC(=O)C=C[C@]4(C)[C@@]3(F)[C@@H](O)C[C@]2(C)[C@@]1(O)C(=O)CO` [dexamethasone, Dexamethasone], which “CR, number of patients” value [3] is on record?
Answer: 1

Question: And the “IE, number of patients” value [3]?
Answer: 6

Question: And the “MR, number of patients” value [3]?
Answer: 11

Question: And the “NC, number of patients” value [3]?
Answer: 16

Question: What about the “PD, number of patients” value [3] of the same compound?
Answer: 22

Question: And the “PR, number of patients” value [3]?
Answer: 13

Question: And the “CR+PR rate” value [3]?
Answer: 22.2%

Question: And the overall response rate [3]?
Answer: 39.7%

Question: And the “Median duration of response” value [5]?
Answer: 5.6 months

Question: What about the “Median time to response” value [5] of the same compound?
Answer: 43 days

Question: What about the One-year survival [5] of the same compound?
Answer: 66%

Question: And the complete response [5]?
Answer: < 1%

Question: And the “complete response plus near-complete response” value [5]?
Answer: 2%

Question: What about the “complete response, number of patients” value [5] of the same compound?
Answer: 2 patients

Question: What about the “response rate (complete plus partial response (CR+PR))” value [5] of the same compound?
Answer: 18%

Question: What about the “CR + PR + MR, (%)” value [5] of the same compound?
Answer: (35) %

Question: And the “Complete Response, (%)” value [5]?
Answer: (<1) %

Question: What about the “Minor Response, (%)” value [5] of the same compound?
Answer: (17) %

Question: What about the “Near CR: IF+, (%)” value [5] of the same compound?
Answer: (<1) %

Question: And the “No Change, (%)” value [5]?
Answer: (48) %

Question: And the “Not Evaluable, (%)” value [5]?
Answer: (4) %

Question: And the “Overall Response Rate (CR + PR), (%)” value [5]?
Answer: (18) %

Question: And the “Partial Response, (%)” value [5]?
Answer: (17) %

Question: What about the “Progressive Disease, (%)” value [5] of the same compound?
Answer: (13) %

Question: And the “SWOG Remission, (%)” value [5]?
Answer: (5) %
